Data: EP2342182B1 (H. Lundbeck A/S, priority 2008, dated 2010)

What was measured:
human NK3 receptor [1] = target: T1, human NK3 receptor (Homo sapiens, UniProt P29371); assay: NK3 receptor binding assay (SPA-based competition binding with 125I-NKB); conditions: read-out: Affinity (Ki/nM); note: competition with app 0.02 nM 125I-NKB
T1 construct: expressed in transfected cells; membranes prepared from them
T1 sequence (P29371 1-465): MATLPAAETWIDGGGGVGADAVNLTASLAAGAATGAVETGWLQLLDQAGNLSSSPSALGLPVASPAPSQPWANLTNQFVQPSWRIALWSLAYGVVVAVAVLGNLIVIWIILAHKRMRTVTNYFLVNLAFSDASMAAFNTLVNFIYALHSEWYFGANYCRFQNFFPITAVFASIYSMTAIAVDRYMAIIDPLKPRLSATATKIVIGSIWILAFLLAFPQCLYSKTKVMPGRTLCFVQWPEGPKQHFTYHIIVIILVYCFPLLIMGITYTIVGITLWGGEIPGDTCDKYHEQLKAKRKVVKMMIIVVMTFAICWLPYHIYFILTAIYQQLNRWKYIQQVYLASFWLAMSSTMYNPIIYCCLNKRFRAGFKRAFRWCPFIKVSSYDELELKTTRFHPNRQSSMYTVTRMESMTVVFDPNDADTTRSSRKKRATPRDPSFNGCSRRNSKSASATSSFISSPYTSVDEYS
Procedure: Example 12 NK3 receptor binding assay
Membranepreparation: BHK cells stably expressing the human NK3 receptor were seeded in harvesting plates in Dulbeccos MEM containing GlutaMax (862 mg/l), 1mM sodium pyruvate, 10% fetal calf serum, 1% Pen/Strep, 1 mg/ml G418 and were grown at 34 °C in a humidified atmosphere containing 10% CO2. To increase receptor expression, 10 µM trichotatin A was added to the media 24 hours before harvest of the cells at a confluency of app 90%. Prior to the harvesting, the cells were washed twice with PBS without Mg^2+ og Ca^2+ and subsequently scrapped of in 10 ml PBS pr harvesting plate. The cells suspension were centrifuged at 1500xG in three minutes before resuspension in 15 mM Tris-HCl pH 7,5 buffer containing 2 mM MgCl2; 0,3 mM EDTA and 1 mM EGTA (buffer A). The cell suspention was homogenised and subsequently centrifuged at 40000xG in 30 minutes. The membrane-pellet was resuspended in buffer A containing 250 mM sucrose, alliquoted and stored at ― 80 °C.
Affinity assay description: The assay was performed as a SPA-based competition-binding assay in a 50 mM Tris pH 7.4 assay buffer containing 120 mM NaCl, 3 mM MnCl2, 40 µg/ml bacitracin, 2 µg/ml Chymostatin, 1 µg/ml Phosphoramidon and 4 µg/ml Leupeptin. […] The assay plate was subsequently under agitation incubated for 90 min at RT. The plate was centrifugated 10 minutes at 500xG and counted in a topcounter 5 minuttes pr well.
The total binding, which comprised less than 5 % of added radioligand, was defined using assay buffer whereas the non-specific binding was defined in the presence of 1 µM osanetant. The non-specific binding constituted app 5 % of the total binding.

human NK3 receptor [2] = target: T1, human NK3 receptor; assay: NK3 receptor efficacy and potency assay (FLIPR Calcium 4); assay type: cell-based; conditions: read-out: Potency (cIC50/nM)
Procedure: Example 13 NK3 receptor efficacy and potency assay
BHK cells stably expressing the human NK3 receptor were seeded in 100 µl media in black walled clear-base 96-wells plates (Costar) aiming at a confluency of 95-100% at the day of assay. The assay was performed according to the FLIPR Calcium 4 Assay kit (Molecular Devices). At the day of the assay, the media was removed and the cells were washed once with the HBSS buffer (Hanks BSS buffer, pH 7,4 containing 20 mM Hepes) before 100 µl of a solution of the calcium assay reagent dissolved in the HBSS buffer containing 2,5 mM probinicid was added to the cells. The plates were incubated for 60 min at 34°C, 10% CO2 before use in the FLIPR for examination of fluorescence.
For efficacy and potency evaluation of compounds, these were diluted in HBSS buffer prior to test. For test of agonist activity, 25 µl of the diluted compound solution was added and the plate was analyzed for 5 minutes in the FLIPR. For test of antagonist activity, the plate was incubated for another 45 minutes before addition of 25 µl of the EC85 concentration ofNKB (app. 4 nM) as described above. The plates were subsequently analyzed for 5 minutes before the assay was terminated. The maximal increase in fluorescence over background following each ligand addition was determined.

Row | SMILES | Ki (human NK3 receptor [1]) | IC50 (human NK3 receptor [2])
1 | CCCn1c(CN2CCCC2=O)c(C(=O)N[C@H](c2cccc(F)c2)C2CC2)c2cccc(F)c2c1=O [Example 6e, 8-Fluoro-1-oxo-3-(2-oxo-pyrrolidin-1-ylmethyl)-2-propyl-1,2-dihydro-isoquinoline-4-carboxylic acid [(S)-cyclopropyl-(3-fluoro-phenyl)-methyl]-amide] | 9.8 nM | 21 nM
2 | CC[C@H](NC(=O)c1c(C)n(NCC(C)C)c(=O)c2ccccc12)c1ccccc1 [Example 2d, 2-Isobutylamino-3-methyl-1-oxo-1,2-dihydro-isoquinoline-4-carboxylic acid ((S)-1-phenyl-propyl)-amide] | 46 nM | 230 nM
3 | Cc1c(C(=O)N[C@H](c2cccc(F)c2)C2CC2)c2cccc(F)c2c(=O)n1[C@@H]1CCN(C)C1 [Example 7i, 8-Fluoro-3-methyl-2-((R)-1-methyl-pyrrolidin-3-yl)-1-oxo-1,2-dihydro-isoquinoline-4-carboxylic acid [(S)-cyclopropyl-(3-fluoro-phenyl)-methyl]-amide] | 90 nM | 660 nM
4 | Cc1c(C(=O)N[C@H](c2cccc(F)c2)C2CC2)c2cccc(F)c2c(=O)n1[C@@H]1CCNC1 [Example 5g, 8-Fluoro-3-methyl-1-oxo-2-(R)-1-pyrrolidin-3-yl-1,2-dihydro-isoquinoline-4-carboxylic acid [(S)-cyclopropyl-(3-fluoro-phenyl)-methyl]-amide] | – | 910 nM
5 | Cc1c(C(=O)N[C@H](c2cccc(F)c2)C2CC2)c2cccc(F)c2c(=O)n1C[C@@H]1CCCN1C [Example 7a, 8-Fluoro-3-methyl-2-((S)-1-methyl-pyrrolidin-2-ylmethyl)-1-oxo-1,2-dihydro-isoquinoline-4-carboxylic acid [(S)-cyclopropyl-(3-fluoro-phenyl)-methyl]-amide] | 78 nM | 130 nM
6 | Cc1c(C(=O)N[C@H](c2cccc(F)c2)C2CCC2)c2cccc(F)c2c(=O)n1C[C@H]1CCCN1 [Example 5d, 8-Fluoro-3-methyl-1-oxo-2-(R)-1pyrrolidin-2-ylmethyl-1,2-dihydro-isoquinoline-4-carboxylic acid [(S)-cyclobutyl-(3-fluoro-phenyl)-methyl]-amide] | 25 nM | 16 nM
7 | CCNn1c(C)c(C(=O)N[C@H](c2cccc(F)c2)C2CC2)c2cccc(F)c2c1=O [Example 2p, 2-Ethylamino-8-fluoro-3-methyl-1-oxo-1,2-dihydro-isoquinoline-4-carboxylic acid [(S)-cyclopropyl-(3-fluoro-phenyl)-methyl]-amide] | 12 nM | 27 nM
8 | CC[C@H](NC(=O)c1c(C)n(C2CCCC2)c(=O)c2ccccc12)c1ccccc1 [Example 1a, 2-Cyclopentyl-3-methyl-1-oxo-1,2-dihydro-isoquinoline-4-carboxylic acid ((S)-1-phenylpropyl)-amide] | 310 nM | 570 nM
9 | CCCn1c(CN2CCNCC2)c(C(=O)N[C@H](c2cccc(F)c2)C2CCC2)c2cccc(F)c2c1=O [Example 6b, 8-Fluoro-1-oxo-3-piperazin-1-ylmethyl-2-propyl-1,2-dhydro-isoquinoline-4-carboxylic acid [(S)-cyclobutyl-(3-fluoro-phenyl)-methyl]-amide] | 6.6 nM | 18 nM
10 | COCCn1c(C)c(C(=O)N[C@H](c2cccc(F)c2)C2CC2)c2cccc(F)c2c1=O [Example 4f, 8-Fluoro-2-(2-methoxy-ethyl)-3-methyl-1-oxo-1,2-dihydro-isoquinoline-4-carboxylic acid [(S)-cyclopropyl-(3-fluoro-phenyl)-methyl]-amide] | 76 nM | 230 nM

Further lines, results first:

Row | Ki (human NK3 receptor [1]) | IC50 (human NK3 receptor [2]) | SMILES
11 | 23 nM | – | Cc1c(C(=O)N[C@H](c2ccccc2)C2CC2)c2cccc(F)c2c(=O)n1NCC(C)C [Example 2j, 8-Fluoro-2-isobutylamino-3-methyl-1-oxo-1,2-dihydro-isoquinoline-4-carboxylic acid ((S)-cyclopropyl-phenyl-methyl)-amide]
12 | 160 nM | 380 nM | Cc1c(C(=O)N[C@H](c2cccc(F)c2)C2CCC2)c2cccc(F)c2c(=O)n1CCO [Example 4p, 8-Fluoro-2-(2-hydroxy-ethyl)-3-methyl-1-oxo-1,2-dihydro-isoquinoline-4-carboxylic acid [(S)-cyclobutyl-(3-fluoro-phenyl)-methyl]-amide]
13 | 6.8 nM | – | CCNn1c(CN2CCCC2=O)c(C(=O)N[C@H](c2cccc(F)c2)C2CC2)c2cccc(F)c2c1=O [Example 2r, 2-Ethylamino-8-fluoro-1-oxo-3-(2-oxo-pyrrolidin-1-ylmethyl)-1,2-dihydro-isoquinoline-4-carboxylic acid [(S)-cyclopropyl-(3-fluoro-phenyl)-methyl]-amide]
14 | – | 390 nM | Cc1c(C(=O)NC(c2cccc(F)c2)C2CCC2)c2cccc(F)c2c(=O)n1C1CCOC1 [Example 4r, 8-Fluoro-3-methyl-1-oxo-2-(S)-tetrahydro-furan-3-yl-1,2-dihydro-isoquinoline-4-carboxylic acid [(S)-cyclobutyl-(3-fluoro-phenyl)-methyl]-amide]
15 | 68 nM | 180 nM | CCOn1c(C)c(C(=O)N[C@H](c2cccc(F)c2)C2CCC2)c2cccc(F)c2c1=O [Example 4t, 2-Ethoxy-8-fluoro-3-methyl-1-oxo-1,2-dihydro-isoquinoline-4-carboxylic acid [(S)-cyclobutyl-(3-fluoro-phenyl)-methyl]-amide]
16 | 13 nM | 7 nM | CCCn1c(CN2CCNCC2)c(C(=O)N[C@H](c2cccc(F)c2)C2CC2)c2cccc(F)c2c1=O [Example 6a, 8-Fluoro-1-oxo-3-piperazin-1-ylmethyl-2-propyl-1,2-dihydro-isoquinoline-4-carboxylic acid [(S)-cyclopropyl-(3-fluoro-phenyl)-methyl]-amide]
17 | 7.4 nM | – | CCCNn1c(C)c(C(=O)N[C@H](c2cccc(F)c2)C2CC2)c2cccc(F)c2c1=O [Example 2q, 8-Fluoro-3-methyl-1-oxo-2-propylamino-1,2-dihydro-isoquinoline-4-carboxylic acid [(S)-cyclopropyl-(3-fluoro-phenyl)-methyl]-amide]
18 | 180 nM | 580 nM | CC[C@H](NC(=O)c1c(C)n(NCC(C)(C)C)c(=O)c2ccccc12)c1ccccc1 [Example 2e, 2-(2,2-Dimethyl-propylamino)-3-methyl-1-oxo-1,2-dihydro-isoquinoline-4-carboxylic acid ((S)-1-phenyl-propyl)-amide]
19 | 200 nM | 440 nM | CC[C@H](NC(=O)c1c(C)n(CCSC)c(=O)c2ccccc12)c1ccccc1 [Example 1q, 3-Methyl-2-(2-methylsulfanyl-ethyl)-1-oxo-1,2-dihydro-isoquinoline-4-carboxylic acid ((S)-1-phenyl-propyl)-amide]
20 | 9.3 nM | 10 nM | O=C(N[C@H](c1cccc(F)c1)C1CC1)c1c(CN2CCCC2=O)n(CCC(F)(F)F)c(=O)c2c(F)cccc12 [Example 4l, 8-Fluoro-1-oxo-3-(2-oxo-pyrrolidin-1-ylmethyl)-2-(3,3,3-trifluoro-propyl)-1,2-dihydro-isoquinoline-4-carboxylic acid [(S)-cyclopropyl-(3-fluoro-phenyl)-methyl]-amide]
